Where two headings read alike, the source gives them in different places. Marks after values point to notes of the source that are not given here.
Key:
[1] = system: Hep 3B cells; experiment: Cell cycle determination by flow cytometry, Hep 3B; assay type: cell-based, human; settings: cell line not given
[2] = system: Hep 3B cells; experiment: MTT cell viability assay, Hep 3B cells (serum-free DMEM); settings: for viability at 5 µM / viability at 10 µM / viability at 25 µM / viability at 50 µM / IC50 / viability at 1.25 µM / viability at 0.1 µM / viability at 0.5 µM / viability at 1 µM / viability at 2 µM: Homo sapiens, Hep3B
From the text: (§1) Human hepatoma cell lines Hep G2 and Hep 3 were chosen as the in vitro models of hepatocytes and hepatoma, respectively.

[3] = system: Hep G2 cells; experiment: MTT cell viability assay, Hep G2 cells (serum-free DMEM); settings: Homo sapiens
From the text: as §1

[4] = system: Hep 3B cells; settings: human, 48 h
From the text: as §1

[5] = in vitro; settings: human, Cell viability
From the text: as §1

[6] = MTT cell viability assay, Hep G2 cells (serum-free DMEM); settings: human, Hep G2 cells, Cell viability
From the text: as §1

[7] = 48 h, read-out: IC50 (cell viability), 48 hr
[8] = 72 h, read-out: IC50 (cell viability), 72 hr
[9] = HepG2, 48 h, read-out: IC50 (cell viability), 48 hr
[10] = HepG2, 72 h, read-out: IC50 (cell viability), 72 hr
[11] = no lovastatin 48 hr, then CAO 1.25 μM 48 hr
[12] = no lovastatin 48 hr, then CAO 5 μM 48 hr

O=C(/C=C/c1ccc(O)c(O)c1)OCCc1ccccc1 [CAPE, caffeic acid phenethyl ester]
cell cycle arrest stage [1]: G1 arrest
Ratio, inhibition (%) Hep 3B/inhibition (%) Hep G2 ([2]; CAPE 5 μM alone, 72 hr, Table 23): 0.4**
Ratio, inhibition (%) Hep 3B/inhibition (%) Hep G2 ([2]; CAPE 5 μM, 48 hr): 0.4***
Ratio, inhibition (%) Hep 3B/inhibition (%) Hep G2 ([2]; CAPE 5 μM, 72 hr): 0.5***
Ratio, inhibition (%) Hep 3B/inhibition (%) Hep G2 ([2]; CAPE 10 μM alone, 72 hr, Table 23): 0.6***
Ratio, inhibition (%) Hep 3B/inhibition (%) Hep G2 ([2]; CAPE 10 μM, 48 hr): 0.5***
Ratio, inhibition (%) Hep 3B/inhibition (%) Hep G2 ([2]; CAPE 10 μM, 72 hr): 0.7**
Ratio, inhibition (%) Hep 3B/inhibition (%) Hep G2 ([2]; CAPE 25 μM alone, 72 hr, Table 23): 0.9
Ratio, inhibition (%) Hep 3B/inhibition (%) Hep G2 ([2]; CAPE 25 μM, 48 hr): 1.1
Ratio, inhibition (%) Hep 3B/inhibition (%) Hep G2 ([2]; CAPE 25 μM, 72 hr): 1.0
Ratio, inhibition (%) Hep 3B/inhibition (%) Hep G2 ([2]; CAPE 50 μM, 48 hr): 0.9**
Ratio, inhibition (%) Hep 3B/inhibition (%) Hep G2 ([2]; CAPE 50 μM, 72 hr): 1.0
viability at 5 µM ([2]; 48 h, read-out: Cell viability, CAPE 5 μM, 48 hr): 87.1 ± 1.8%
viability at 10 µM ([2]; 48 h, read-out: Cell viability, CAPE 10 μM, 48 hr): 73.2 ± 1.2%
viability at 25 µM ([2]; 48 h, read-out: Cell viability, CAPE 25 μM, 48 hr): 38.2 ± 4.7%
viability at 50 µM ([2]; 48 h, read-out: Cell viability, CAPE 50 μM, 48 hr): 20.5 ± 4.6%
IC50 [2, 7]: 19.9 µM
viability at 5 µM ([2]; 72 h, read-out: Cell viability, CAPE 5 μM alone, 72 hr, Table 23): 74.2 ± 6.8%
viability at 5 µM ([2]; 72 h, read-out: Cell viability, CAPE 5 μM, 72 hr): 70.8 ± 2.6%
viability at 10 µM ([2]; 72 h, read-out: Cell viability, CAPE 10 μM alone, 72 hr, Table 23): 53.5 ± 5%
viability at 10 µM ([2]; 72 h, read-out: Cell viability, CAPE 10 μM, 72 hr): 47.6 ± 1.9%
viability at 25 µM ([2]; 72 h, read-out: Cell viability, CAPE 25 μM alone, 72 hr, Table 23): 22.3 ± 5.7%
viability at 25 µM ([2]; 72 h, read-out: Cell viability, CAPE 25 μM, 72 hr): 12.5 ± 4.8%
viability at 50 µM ([2]; 72 h, read-out: Cell viability, CAPE 50 μM, 72 hr): 0%
IC50 [2, 8]: 9.5 µM
Ratio, inhibition (%) Hep 3B/inhibition (%) Hep G2 ([2]; no lovastatin 48 hr, then CAPE 5 μM 48 hr): 0.4***
Ratio, inhibition (%) Hep 3B/inhibition (%) Hep G2 ([2]; no lovastatin 48 hr, then CAPE 10 μM 48 hr): 0.4***
IC50 [3, 9]: 9.5 µM
IC50 [3, 10]: 4.5 µM
Cell viability ([4]; 5 μM): 88.8 ± 1.6^b % of control
Cell viability ([4]; 10 μM): 77.4 ± 1.8^c % of control
viability at 48 h, 5 μM [5]: 70.2 ± 1.7%
viability at 48 h, 10 μM [5]: 47.7 ± 5.6%
viability at 48 hr, 5 μM [5]: 71.1 ± 1.8%
viability at 48 hr, 10 μM [5]: 47.4 ± 3%
viability at 48 hr, 25 μM [5]: 42.6 ± 1.3%
viability at 48 hr, 50 μM [5]: 7.5 ± 0.6%
viability at 72 h, 5 μM [5]: 36.8 ± 6.7%
viability at 72 h, 10 μM [5]: 20 ± 4%
viability at 72 h, 25 μM [5]: 13.2 ± 1.1%
viability at 72 hr, 5 μM [5]: 42.3 ± 2.5%
viability at 72 hr, 10 μM [5]: 21.2 ± 5%
viability at 72 hr, 25 μM [5]: 12.5 ± 3%
viability at 72 hr, 50 μM [5]: 1.9 ± 1.8%

CCCCCCCCOC(=O)/C=C/c1ccc(O)c(O)c1 [CAO, caffeic acid 1-octyl ester]
Ratio, inhibition (%) Hep 3B/inhibition (%) Hep G2 ([2]; CAO 1.25 μM alone, 96 hr): 1.3*
Ratio, inhibition (%) Hep 3B/inhibition (%) Hep G2 ([2]; CAO 5 μM alone, 96 hr): 0.9
Ratio, inhibition (%) Hep 3B/inhibition (%) Hep G2 ([2]; CAO 5 μM, 48 hr): 0.9**
Ratio, inhibition (%) Hep 3B/inhibition (%) Hep G2 ([2]; CAO 5 μM, 72 hr): 1.0
Ratio, inhibition (%) Hep 3B/inhibition (%) Hep G2 ([2]; CAO 10 μM, 48 hr): 0.8
Ratio, inhibition (%) Hep 3B/inhibition (%) Hep G2 ([2]; CAO 10 μM, 72 hr): 1.0
Ratio, inhibition (%) Hep 3B/inhibition (%) Hep G2 ([2]; CAO 25 μM, 48 hr): 1.0*
Ratio, inhibition (%) Hep 3B/inhibition (%) Hep G2 ([2]; CAO 25 μM, 72 hr): 1.0
viability at 1.25 µM ([2]; 48 h, read-out: Cell viability, CAO 1.25 μM, 48 hr): 97.8 ± 4.1%
viability at 5 µM ([2]; 48 h, read-out: Cell viability, CAO 5 μM, 48 hr): 52 ± 1.8%
viability at 10 µM ([2]; 48 h, read-out: Cell viability, CAO 10 μM, 48 hr): 21.7 ± 3.9%
viability at 25 µM ([2]; 48 h, read-out: Cell viability, CAO 25 μM, 48 hr): 3.9 ± 1.3%
IC50 [2, 7]: 5.3 µM
viability at 1.25 µM ([2]; 72 h, read-out: Cell viability, CAO 1.25 μM, 72 hr): 89.8 ± 0.6%
viability at 5 µM ([2]; 72 h, read-out: Cell viability, CAO 5 μM, 72 hr): 16.3 ± 2.6%
viability at 10 µM ([2]; 72 h, read-out: Cell viability, CAO 10 μM, 72 hr): 2.4 ± 1.6%
viability at 25 µM ([2]; 72 h, read-out: Cell viability, CAO 25 μM, 72 hr): 0%
IC50 [2, 8]: 2.9 µM
viability at 1.25 µM ([2]; 96 h, read-out: Cell viability, CAO 1.25 μM alone, 96 hr): 66.9 ± 2.9%
viability at 5 µM ([2]; 96 h, read-out: Cell viability, CAO 5 μM alone, 96 hr): 20.1 ± 5.7%
Cell viability [2, 11]: 83.0 ± 4.4^b % of control
Ratio, inhibition (%) Hep 3B/inhibition (%) Hep G2 [2, 11]: 17.0***
Cell viability [2, 12]: 53.2 ± 4.5^d % of control
Ratio, inhibition (%) Hep 3B/inhibition (%) Hep G2 [2, 12]: 0.8*
viability at 96 h, 1.25 μM ([6]; CAO 1.25 μM alone, 96 hr): 74 ± 2.9%
viability at 48 h, 1.25 μM ([6]; CAO 1.25 μM, 48 hr): 104 ± 4.6%
viability at 72 h, 1.25 μM ([6]; CAO 1.25 μM, 72 hr): 102.7 ± 0.4%
viability at 96 h, 5 μM ([6]; CAO 5 μM alone, 96 hr): 16.2 ± 1.2%
viability at 48 h, 5 μM ([6]; CAO 5 μM, 48 hr): 44.2 ± 6.6%
viability at 72 h, 5 μM ([6]; CAO 5 μM, 72 hr): 18.1 ± 2.1%
viability at 48 h, 10 μM ([6]; CAO 10 μM, 48 hr): 5.8 ± 3.9%
viability at 72 h, 10 μM ([6]; CAO 10 μM, 72 hr): 0%
viability at 48 h, 25 μM ([6]; CAO 25 μM, 48 hr): 0%
viability at 72 h, 25 μM ([6]; CAO 25 μM, 72 hr): 0%
viability at 48 h, 1.25 μM [6, 11]: 99 ± 4.1%
viability at 48 h, 5 μM [6, 12]: 42.8 ± 3%
IC50 [3, 9]: 4 µM
IC50 [3, 10]: 2.7 µM

COc1cccc2c1C(=O)c1c(O)c3c(c(O)c1C2=O)C[C@@](O)(C(=O)CO)C[C@@H]3O[C@H]1C[C@H](N)[C@H](O)[C@H](C)O1 [DOX, doxorubicin]
Ratio, inhibition (%) Hep 3B/inhibition (%) Hep G2 ([2]; DOX 0.5 μM, 48 hr): 0.6***
Ratio, inhibition (%) Hep 3B/inhibition (%) Hep G2 ([2]; DOX 0.5 μM, 72 hr): 0.7*
Ratio, inhibition (%) Hep 3B/inhibition (%) Hep G2 ([2]; DOX 1 μM, 48 hr): 0.6***
Ratio, inhibition (%) Hep 3B/inhibition (%) Hep G2 ([2]; DOX 1 μM, 72 hr): 0.6**
Ratio, inhibition (%) Hep 3B/inhibition (%) Hep G2 ([2]; DOX 2 μM, 48 hr): 0.7***
Ratio, inhibition (%) Hep 3B/inhibition (%) Hep G2 ([2]; DOX 2 μM, 72 hr): 0.9**
viability at 0.1 µM ([2]; 48 h, read-out: Cell viability, DOX 0.1 μM, 48 hr): 99.9 ± 7.8%
viability at 0.5 µM ([2]; 48 h, read-out: Cell viability, DOX 0.5 μM, 48 hr): 66.7 ± 1.6%
viability at 1 µM ([2]; 48 h, read-out: Cell viability, DOX 1 μM, 48 hr): 59.3 ± 4.1%
viability at 2 µM ([2]; 48 h, read-out: Cell viability, DOX 2 μM, 48 hr): 40.1 ± 3%
IC50 [2, 7]: 1.5 µM
viability at 0.1 µM ([2]; 72 h, read-out: Cell viability, DOX 0.1 μM, 72 hr): 100 ± 5.8%
viability at 0.5 µM ([2]; 72 h, read-out: Cell viability, DOX 0.5 μM, 72 hr): 62.1 ± 6.9%
viability at 1 µM ([2]; 72 h, read-out: Cell viability, DOX 1 μM, 72 hr): 48.9 ± 8.4%
viability at 2 µM ([2]; 72 h, read-out: Cell viability, DOX 2 μM, 72 hr): 9.9 ± 2.7%
IC50 [2, 8]: 1 µM
viability at 48 hr, 0.1 μM ([6]; DOX 0.1 μM, 48 hr): 100 ± 5.3%
viability at 72 hr, 0.1 μM ([6]; DOX 0.1 μM, 72 hr): 99.9 ± 7.5%
viability at 48 hr, 0.5 μM ([6]; DOX 0.5 μM, 48 hr): 42.8 ± 3.7%
viability at 72 hr, 0.5 μM ([6]; DOX 0.5 μM, 72 hr): 46.7 ± 4%
viability at 48 hr, 1 μM ([6]; DOX 1 μM, 48 hr): 29.1 ± 1.7%
viability at 72 hr, 1 μM ([6]; DOX 1 μM, 72 hr): 20 ± 1.1%
viability at 48 hr, 2 μM ([6]; DOX 2 μM, 48 hr): 16.7 ± 2.4%
viability at 72 hr, 2 μM ([6]; DOX 2 μM, 72 hr): 1.9 ± 0.8%
IC50 [3, 9]: 0.4 µM
IC50 [3, 10]: 0.5 µM

— patent publication US20020173538A1, “Method for sensitizing cancer cells to cancer therapies with a mevalonate-reducing compound” (priority 2000, published 2002)
